Measured values reported in the OPERA property sets (Mansouri et al. 2018).
≈ marks a conversion by molar mass, not a printed value. One block for each compound: values may come before it.

SMILES: COC(=O)/C=C(\C)OP(=O)(OC)OC
logP: 0.13

solubility (20 °C): 0.123 mM (≈ 40 µg/mL)
SMILES: CCCC(=NOCC)C1=C(O)CC(C2CCCSC2)CC1=O (configuration not stated)

SMILES: CCOc1ccc([Si](C)(C)CCCc2ccc(F)c(Oc3ccccc3)c2)cc1
logP: 8.2

SMILES: CC1(C)OC(c2ccco2)CN1C(=O)C(Cl)Cl (configuration not stated)
logP: 2.12
solubility (20 °C): 0.708 mM (≈ 197 µg/mL)

solubility (20 °C): 0.00914 mM (≈ 2.7 µg/mL)
SMILES: CC(C)OC(=O)c1cc(C(=O)OC(C)C)cc([N+](=O)[O-])c1

SMILES: CCOC(=O)c1cnn(C)c1S(=O)(=O)NC(=O)Nc1nc(OC)cc(OC)n1
logP: 1.3

SMILES: CNC(=O)Oc1cc(C)cc(C)c1
solubility (20 °C): 2.62 mM (≈ 470 µg/mL)

SMILES: CNC(=O)ON=C(C)C(C)SC (configuration not stated)
logP: 1.1
solubility (20 °C): 184 mM (≈ 35000 µg/mL)

SMILES: CCN(Cc1ccc(Cl)nc1)C(=C[N+](=O)[O-])NC
solubility (pH 7.0, 20 °C): 3100 mM (≈ 840000 µg/mL)

SMILES: CS/C(C)=N/OC(=O)N(C)SN(C)C(=O)O/N=C(\C)SC
solubility (25 °C): 0.0729 mM (≈ 25.8 µg/mL)

logP: 5.3
solubility (20 °C): 0.00166 mM (≈ 0.88 µg/mL)
SMILES: CC1=CC[C@@H]2C[C@@H](C[C@]3(CC[C@H](C)[C@@H](C)O3)O2)OC(=O)[C@@H]2C=C(C)[C@@H](O)[C@H]3OCC(=CC=C[C@H](C)C1)[C@]32O

SMILES: CS(=O)(=O)c1ccc(C(=O)C2C(=O)CCCC2=O)c(Cl)c1
solubility (25 °C): 0.502 mM (≈ 165 µg/mL)

SMILES: CCCN(CCC)c1c([N+](=O)[O-])cc(S(N)(=O)=O)cc1[N+](=O)[O-]
logP: 3.73

logP: 1.35
SMILES: CC1(C)OC[C@@H]2O[C@@]3(C(=O)O)OC(C)(C)O[C@H]3[C@@H]2O1

SMILES: FC(F)C(F)(F)OCC(Cn1cncn1)c1ccc(Cl)cc1Cl (configuration not stated)
logP: 3.56

SMILES: N#Cc1nn(-c2c(Cl)cc(C(F)(F)F)cc2Cl)c(N)c1S(=O)C(F)(F)F (configuration not stated)
logP: 4
solubility (20 °C): 0.00435 mM (≈ 1.9 µg/mL)

SMILES: CCOc1ccccc1OS(=O)(=O)NC(O)=Nc1nc(OC)cc(OC)n1
logP: 2.89
solubility (pH 5.0, 20 °C): 0.0653 mM (≈ 26 µg/mL)

logP: 2.4
solubility: 0.00427 mM (≈ 1 µg/mL)
SMILES: CC#CCOC(C)c1ccc(OC)c(OC)c1 (configuration not stated)

logP: 1.34
SMILES: O=C(O)Cn1c(=O)sc2cccc(Cl)c21

solubility (pH 7.4, 20 °C): 0.00217 mM (≈ 1 µg/mL)
SMILES: NC(=O)c1nc(-c2ccccc2)n(-c2ccc(Cl)c(COCC(F)(F)C(F)(F)F)c2)n1

SMILES: CSC(=O)c1cccc2nnsc12
logP: 3.1
solubility (25 °C): 0.0366 mM (≈ 7.7 µg/mL)

SMILES: CC(C)(C)[C@H](O)/C(=C\c1ccc(Cl)cc1)n1cncn1
solubility (25 °C): 0.0288 mM (≈ 8.41 µg/mL)

SMILES: COCc1cnc(C2=NC(C)(C(C)C)C(=O)N2)c(C(=O)O)c1 (configuration not stated)
logP: 0.73

SMILES: COC(=O)c1c(C(F)F)nc(C(F)(F)F)c(C2=NCCS2)c1CC(C)C
logP: 3.89

SMILES: O=C([O-])C(F)(F)C(F)F.[Na+]
logP: 1.32
solubility (20 °C): 131 mM

SMILES: O=C(NC(=O)c1c(F)cccc1F)Nc1ccc(OC(F)(F)C(F)OC(F)(F)F)c(Cl)c1 (configuration not stated)
logP: 5.27
solubility (25 °C): 0.000108 mM (≈ 0.0531 µg/mL)

SMILES: CN(C)S(=O)(=O)N(SC(F)(Cl)Cl)c1ccccc1
logP: 3.7

SMILES: CC1(C)[C@H](C=C(Cl)Cl)[C@H]1C(=O)OCc1c(F)c(F)cc(F)c1F
solubility (20 °C): 0.000154 mM (≈ 0.057 µg/mL)

SMILES: COCCN(C(=O)CCl)c1c(C)cccc1C
logP: 2.17
solubility (20 °C): 8.59 mM (≈ 2200 µg/mL)

SMILES: CC(C)(C)c1cc([N+](=O)[O-])cc([N+](=O)[O-])c1O
solubility (pH 5.0, 20 °C): 0.0187 mM (≈ 4.5 µg/mL)

logP: 3.69
SMILES: CC(C)OC(=O)[C@@H](C)N(C(=O)c1ccccc1)c1ccc(F)c(Cl)c1

logP: 3.9
SMILES: C#CCOC(=O)[C@@H](C)Oc1ccc(Oc2ncc(Cl)cc2F)cc1

logP: 2.04
solubility (20 °C): 0.137 mM (≈ 34 µg/mL)
SMILES: O=[n+]1[n-]c(-n2ccnc2)nc2ccc(Cl)cc21

SMILES: CN=C(O)/C(=N/OC)c1ccccc1Oc1ccccc1
logP: 2.32

logP: 3.77
SMILES: COC(=O)CSc1cc(/N=c2\sc(=O)n3n2CCCC3)c(F)cc1Cl

SMILES: CC(C)C1(C)N=C(c2nc3ccccc3cc2C(=O)O)NC1=O (configuration not stated)
solubility (25 °C): 0.289 mM (≈ 90 µg/mL)

logD (pH 5.0): 1.1
solubility (pH 5.0, 25 °C): 0.0796 mM (≈ 32 µg/mL)
SMILES: COc1nc(C)nc(NC(=O)NS(=O)(=O)c2ccccc2OCCCl)n1

SMILES: CCC1(CC2(c3cccc(Cl)c3)CO2)C(=O)c2ccccc2C1=O (configuration not stated)
solubility (25 °C): 0.0411 mM (≈ 14 µg/mL)

SMILES: CC1(C)C(C=C(Cl)Cl)C1C(=O)OC(C#N)c1ccc(F)c(Oc2ccccc2)c1 (configuration not stated)
solubility (20 °C): 6.91e-06 mM (≈ 0.003 µg/mL)

logP: 5.45
SMILES: CCN(Cc1c(F)cccc1Cl)c1c([N+](=O)[O-])cc(C(F)(F)F)cc1[N+](=O)[O-]

logD (pH 2.0): 1.8
solubility (pH 5.0, 20 °C): 5.8 mM (≈ 1300 µg/mL)
SMILES: O=C1CC(C(=O)O)CC(=O)C1=C(O)C1CC1 (configuration not stated)

SMILES: Cc1cc(C)nc(Nc2ccccc2)n1
logD (pH 6.1): 2.84
solubility (pH 6.1, 25 °C): 0.607 mM (≈ 121 µg/mL)

SMILES: COCC(=O)N(c1c(C)cccc1C)C(C)C(=O)OC (configuration not stated)
solubility (24 °C): 36.4 mM (≈ 10200 µg/mL)

logP: 2.05
SMILES: COc1cc(OC)nc(N=C(O)NS(=O)(=O)Nc2ccccc2C(=O)C2CC2)n1

SMILES: CCNc1nc(Cl)nc(NC(C)(C)C)n1
logP: 3.21
solubility (pH 7.0, 20 °C): 0.0396 mM (≈ 9.09 µg/mL)

SMILES: CC(C)N(Cc1ccccc1)C(=O)C(C)(C)C
logP: 3
solubility (pH 7.0, 20 °C): 3.39 mM (≈ 790 µg/mL)

SMILES: Cc1cc(C2CC2)nc(Nc2ccccc2)n1
logP: 4

SMILES: CNc1cnn(-c2cccc(C(F)(F)F)c2)c(=O)c1Cl
solubility (25 °C): 0.111 mM (≈ 33.7 µg/mL)

SMILES: COC(C)(C)CCCC(C)C/C=C/C(C)=C/C(=O)OC(C)C (configuration not stated)
solubility: 0.00451 mM (≈ 1.4 µg/mL)

SMILES: CC(C)(C)C(O)(CCc1ccc(Cl)cc1)Cn1cncn1 (configuration not stated)
logP: 3.7

logP: 3.53
solubility (20 °C): 0.034 mM (≈ 11 µg/mL)
SMILES: COc1ccsc1CN(C(=O)CCl)c1c(C)cccc1C

SMILES: CCCCN(CC)c1c([N+](=O)[O-])cc(C(F)(F)F)cc1[N+](=O)[O-]
logP: 5.29
solubility (25 °C): 0.000298 mM (≈ 0.1 µg/mL)

SMILES: CCOP(=S)(OCC)OC(Cl)C(Cl)(Cl)Cl (configuration not stated)
solubility (20 °C): < 0.00298 mM

solubility: 0.101 mM (≈ 33 µg/mL)
SMILES: CCC(Nc1ncnc(C)c1Cl)c1ccc(OC(F)F)cc1 (configuration not stated)

SMILES: CCS(=O)(=O)c1nc2ccccn2c1S(=O)(=O)NC(=O)Nc1nc(OC)cc(OC)n1
solubility (pH 5.0, 20 °C): 0.0381 mM (≈ 17.9 µg/mL)

SMILES: COP(=O)(OC)SCn1c(=O)oc2cc(Cl)cnc21
logP: 1.05

logP: 1.6
SMILES: CCOC(=O)C1CC(=O)C(=C(O)C2CC2)C(=O)C1 (configuration not stated)

SMILES: CC(C)OC(=O)C(O)(c1ccc(Br)cc1)c1ccc(Br)cc1
logP: 5.4

logP: 4.3
solubility (25 °C): 0.0027 mM (≈ 0.92 µg/mL)
SMILES: CCOCOc1ccc(C(=O)Nc2cccc(Cl)c2Cl)cc1

SMILES: CC1(C)[C@H](/C=C(\Cl)C(F)(F)F)[C@@H]1C(=O)O[C@H](C#N)c1cccc(Oc2ccccc2)c1
logP: 6.8

SMILES: CCOP(=O)(SC(C)CC)N1CCSC1=O (configuration not stated)
logP: 1.68

SMILES: CCOC(=O)C1(C)OC(=O)N(c2cc(Cl)cc(Cl)c2)C1=O (configuration not stated)
logP: 3.15

SMILES: CCCSP(=S)(OCC)Oc1ccc(SC)cc1 (configuration not stated)
logP: 5.48

SMILES: Cc1cc(C)nc(NC(=O)NS(=O)(=O)c2ccccc2C(=O)OC2COC2)n1
solubility (pH 5.1, 25 °C): 0.128 mM (≈ 52 µg/mL)

logP: 3.3
SMILES: Fc1cccc(F)c1-c1nnc(-c2ccccc2Cl)nn1

SMILES: CCOP(=S)(OCC)Oc1ccc(=O)n(-c2ccccc2)n1
logP: 3.2
solubility (20 °C): 0.294 mM (≈ 100 µg/mL)

SMILES: CCOP(=O)(SC(C)CC)SC(C)CC (configuration not stated)
logP: 3.9
solubility (25 °C): 0.917 mM (≈ 248 µg/mL)

logP: 4.31
SMILES: CC1CCCCN1CCCOC(=O)c1ccc(Cl)c(Cl)c1 (configuration not stated)

SMILES: O=c1oc2ccccc2c(O)c1C1CC(c2ccc(-c3ccc(Br)cc3)cc2)Cc2ccccc21 (configuration not stated)
logP: 8.5

SMILES: C[N+]1(C)CCCCC1.[Cl-]
logD (pH 7.0): -2.82

SMILES: CC#Cc1cc(C)nc(Nc2ccccc2)n1
logP: 3.28

SMILES: O=c1c2cc(F)ccc2nc(-n2cncn2)n1-c1ccc(Cl)cc1Cl
logD (pH 5.6): 3.24

SMILES: C=CCCCOC(=O)C(CC)N(Cc1ccco1)C(=O)n1ccnc1 (configuration not stated)
logP: 3

SMILES: C#CC(OC(=O)C1C(C=C(C)C)C1(C)C)/C(C)=C/CC (configuration not stated)
solubility (25 °C): 0.000404 mM (≈ 0.111 µg/mL)

SMILES: COCC(=O)N(c1c(C)cccc1C)N1CCOC1=O
logP: 0.8
solubility (20 °C): 12.2 mM (≈ 3400 µg/mL)

SMILES: COc1cc(OC)nc(NC(=O)NS(=O)(=O)c2ncccc2C(=O)N(C)C)n1
logP: 0.01

SMILES: CCNc1nc(Cl)nc(NCC)n1
solubility (20 °C): 0.046 mM (≈ 9.28 µg/mL)

SMILES: O=C(Nc1ccc(F)cc1F)c1cccnc1Oc1cccc(C(F)(F)F)c1
solubility (25 °C): < 0.000127 mM

SMILES: Nc1c(Cl)cc([N+](=O)[O-])cc1Cl
logP: 2.8

SMILES: N#Cc1c(Cl)cccc1Cl
solubility (20 °C): 0.105 mM (≈ 18 µg/mL)

SMILES: CCOc1nc(NC)nc(NC(=O)NS(=O)(=O)c2ccccc2C(=O)OC)n1
logD (pH 5.0): 1.59
solubility (pH 5.0, 25 °C): 0.00414 mM (≈ 1.7 µg/mL)

SMILES: CCOc1ccc(C(C)(C)COCc2cccc(Oc3ccccc3)c2)cc1
solubility (25 °C): < 2.66e-06 mM

SMILES: Cc1cccc(C)c1N(Cn1cccn1)C(=O)CCl
logP: 2.13

logP: 4.07
SMILES: COC(=O)C(C)Oc1ccc(Oc2ncc(C(F)(F)F)cc2Cl)cc1 (configuration not stated)

solubility (20 °C): 0.173 mM (≈ 47 µg/mL)
SMILES: CCOC(=O)Cn1c(=O)sc2cccc(Cl)c21

SMILES: CN(C(=O)COc1nc2ccccc2s1)c1ccccc1
logP: 3.23

SMILES: CNC(=O)Oc1cccc(N=CN(C)C)c1.Cl
solubility (25 °C): 3190 mM

SMILES: CCOC(=O)C(Cl)Cc1cc(-n2nc(C)n(C(F)F)c2=O)c(F)cc1Cl (configuration not stated)
logP: 3.36
solubility (25 °C): 0.0534 mM (≈ 22 µg/mL)

SMILES: CNC(=O)N(C)c1nnc(C(C)(C)C)s1
solubility (25 °C): 10.5 mM (≈ 2400 µg/mL)

logP: 3.7
SMILES: CON=C(Cc1cccnc1)c1ccc(Cl)cc1Cl

SMILES: CCOc1nc(C(Cl)(Cl)Cl)ns1
logP: 3.37
solubility (25 °C): 0.473 mM (≈ 117 µg/mL)

solubility (20 °C): 0.00134 mM (≈ 0.58 µg/mL)
SMILES: CCOCCOC(=O)C(C)Oc1ccc(Oc2ncc(C(F)(F)F)cc2Cl)cc1 (configuration not stated)
